Earlier results in US20140276034A1, “Apparatus Detection of Circulatory Anomalies” (Cardiox Corporation, priority 2013, published 2014).

Settings: manufacturers specified guideline; cited from earlier work

CC1(C)C(=CC=CC=CC=CC2=[N+](CCCCS(=O)(=O)[O-])c3ccc4ccccc4c3C2(C)C)N(CCCCS(=O)(=O)[O-])c2ccc3ccccc3c21.[Na+] [ICG, 1H-benz(e)indolium, 2-[7-[1,3-dihydro-1,1-dimethyl-3-(4-sulfobutyl)-2H-benz[e]indo-2-ylidene]-1,3,5-heptatrienyl]-1,1-dimethyl-3-(4-sulfobutyl)-hydroxide, inner salt, sodium]
maximum ICG dose per day: 2 milligrams per kilogram of body weight
